In patent US4988697A, “Fungicidal compositions and method” (Merck & Co., Inc., priority 1989, dated 1991):

What was measured:
Assay type in all cases: cell-based
A. niger = test: MIC against fungal panel, A. niger; conditions: Aspergillus niger, read-out: MIC, Ketoconazole Alone
Description: (§1) First the MIC for the β-lactone compound and the MIC for the ketoconazole were determined against an array of organisms. Thereafter, the effects on the MIC of adding 0.031, 0.125, 0.5 and 2 μg/ml of ketoconazole were determined.

C. miyabeamis = test: MIC against fungal panel, C. miyabeamis; conditions: read-out: MIC, Ketoconazole Alone
Description: In a manner similar to that above described for effect against Candida albicans the synergistic effect of the combination of the β-lactone compound and ketoconazole against a fungal panel was determined by plating on potato dextrose agar.
as §1

F. oxysporium = test: MIC against fungal panel, F. oxysporium; conditions: read-out: MIC, Ketoconazole Alone
Description: as §1

C. neoformans = test: MIC against fungal panel, C. neoformans; conditions: Cryptococcus neoformans, read-out: MIC, Ketoconazole Alone
Description: as §1

C. albicans (Y1750) = test: MIC against fungal panel, C. albicans (Y1750); conditions: Candida albicans, read-out: MIC, Ketoconazole Alone
Description: as §1

C. albicans (Y1055) = test: MIC against fungal panel, C. albicans (Y1055); conditions: Candida albicans, read-out: MIC, Ketoconazole Alone
Description: as §1

U. zeae = test: MIC against fungal panel, U. zeae; conditions: read-out: MIC, Ketoconazole Alone
Description: as §1

Candida albicans = test: Synergistic and fungicidal effect on exponential phase cultures (CFU/ml over time); conditions: ketoconazole 1 μg/ml
Description: Synergistic and fungicidal effects were determined by treating exponential phase Candida albicans cultures with β-Lactone at MIC and MFC levels and ketoconazole at 0.1 μg/ml or a 1 μg/ml alone or in combination. Exponential phase cultures were prepared by diluting an overnight culture 1:50 or 1:1000 in YNB/G. After incubating the diluted cells 7 or 17 hrs. at 37° C., the exponential phase cells were diluted in YNB/G to A600 =0.0004 u/ml to obtain 3000 cfu/ml.
10 microliters (μl) of β-lactone compound or ketoconazole prepared in DMSO was added to 1 ml of diluted exponential phase cells. The tubes were incubated at 37° C. at 250 rpm for 27 hours. Periodically, aliquots were diluted in 0.9% saline and plated on Sabouraud dextrose agar plates to determine the number of cfu/ml.

## CC(=O)N1CCN(c2ccc(OC[C@H]3CO[C@](Cn4ccnc4)(c4ccc(Cl)cc4Cl)O3)cc2)CC1 (relative stereo) [Ketoconazole, cis-1-acetyl-4-[4-[[2-(2,4-dichlorophenyl)-2-(1H-imidazole-1-ylmethyl)-1,3-dioxolan-4-yl]methoxy]-phenyl]piperazine]
A. niger
  MIC: > 2 µg/mL
C. miyabeamis
  MIC: 2 µg/mL
F. oxysporium
  MIC: > 2 µg/mL
C. neoformans
  MIC: > 2 µg/mL
C. albicans (Y1750)
  MIC: > 2 µg/mL
C. albicans (Y1055)
  MIC: > 2 µg/mL
U. zeae
  MIC: > 2 µg/mL
Candida albicans; Table 1, 0 hours
  Fungal Growth: 2.95 × 10^3 CFU/ML
Candida albicans; Table 1, 2 hours, β-lactone 2.5 μg/ml, alone or combined
  Fungal Growth: 5.1 × 10^3 CFU/ML
Candida albicans; Table 1, 4.5 hours, β-lactone 2.5 μg/ml, alone or combined
  Fungal Growth: 1.09 × 10^4 CFU/ML
Candida albicans; Table 1, 7 hours, β-lactone 2.5 μg/ml, alone or combined
  Fungal Growth: 2.40 × 10^4 CFU/ML
Candida albicans; Table 1, 11 hours, β-lactone 2.5 μg/ml, alone or combined
  Fungal Growth: 6.90 × 10^4 CFU/ML
Candida albicans; Table 1, 17 hours, β-lactone 2.5 μg/ml, alone or combined
  Fungal Growth: 1.36 × 10^5 CFU/ML
Candida albicans; Table 1, 22 hours, β-lactone 2.5 μg/ml, alone or combined
  Fungal Growth: 3.30 × 10^5 CFU/ML
Candida albicans; Table 1, 27 hours, β-lactone 2.5 μg/ml, alone or combined
  Fungal Growth: 7.20 × 10^5 CFU/ML
Candida albicans; Table 2, 0 hours
  Fungal Growth: 2.95 × 10^3 CFU/ML
Candida albicans; Table 2, 2 hours, β-lactone 10 μg/ml, alone or combined
  Fungal Growth: 5.1 × 10^3 CFU/ML
Candida albicans; Table 2, 4.5 hours, β-lactone 10 μg/ml, alone or combined
  Fungal Growth: 1.09 × 10^4 CFU/ML
Candida albicans; Table 2, 7 hours, β-lactone 10 μg/ml, alone or combined
  Fungal Growth: 2.40 × 10^4 CFU/ML
Candida albicans; Table 2, 11 hours, β-lactone 10 μg/ml, alone or combined
  Fungal Growth: 6.90 × 10^4 CFU/ML
Candida albicans; Table 2, 17 hours, β-lactone 10 μg/ml, alone or combined
  Fungal Growth: 1.36 × 10^5 CFU/ML
Candida albicans; Table 2, 22 hours, β-lactone 10 μg/ml, alone or combined
  Fungal Growth: 3.30 × 10^5 CFU/ML
Candida albicans; Table 2, 27 hours, β-lactone 10 μg/ml, alone or combined
  Fungal Growth: 7.20 × 10^5 CFU/ML
